Read-outs that look alike come from different tables or passages of the source.
Assays:
novel object recognition = conditions: 3 mg/kg THC, 24 hours after dosing; cited from earlier work
gene expression = conditions: microarray, out of 24,500 possible genes, acute THC; cited from earlier work
[1] = test system: CD1 female mouse brain lipidome; experiment: Targeted brain lipidomics; assay type: in vivo; conditions: for magnitude class of change in PGE2 and PGF2α, HIPP: p < 0.05
spatial working memory = conditions: male C57 mice, 3 mg/kg, tested 30 minutes later; cited from earlier work
[2] = test system: hippocampal transcriptome; experiment: RNA-Seq of hippocampus after acute THC versus vehicle; assay type: in vivo, mouse; conditions: for number of transcripts differentially expressed in the HIPP: 2 hours, 5% FDR
[3] = PND 35, 2 hours after 3 mg/kg THC i.p.
[4] = PND 50, 2 hours after 3 mg/kg THC i.p.
[5] = adult, 2 hours after 3 mg/kg THC i.p.
[6] = adult, THC vs vehicle, significant

With (±)-11-nor-9-carboxyTHC the “rank of HIPP levels relative to other brain regions” value [3] was “highest”.
For `CCCCCc1cc(O)c2c(c1)OC(C)(C)[C@@H]1CCC(C)=C[C@@H]21` [THC, Δ^9-tetrahydrocannabinol], the “effect on novel object recognition” value (novel object recognition) is given as “impaired”, the “brain area with highest levels” value [3] is given as “HIPP” and the “brain area with highest levels” value [4] is given as “HIPP”. For the same molecule, the “brain area with highest levels” value [5] was “HIPP”, the “number of genes with altered expression” value (gene expression) was 28 and the “change in 2-AG in HYP” value ([1]; PND 35) was “decrease”. For the same molecule, the “change in N-oleoyl glycine in HYP” value ([1]; PND 35) was “increase”, the “effect on AEA levels” value ([1]; PND 35) was “unaffected” and the “number of brain areas with reduced 2-AG levels” value ([1]; PND 35) was 2. The “number of decreases in lipid concentration, all 8 brain areas” value ([1]; PND 35) was 10, the “number of increases in lipid concentration, all 8 brain areas” value ([1]; PND 35) was 23 and the “number of lipids decreased in HIPP” value ([1]; PND 35) was 1. For the same molecule, the “number of lipids increased in HIPP” value ([1]; PND 35) was 6, the “magnitude of change of PGE2 in the HIPP (THC mean divided by vehicle mean)” value ([1]; PND 35, 3 mg/kg i.p., 2 hours) was 1.13 and the “magnitude class of change in PGE2 and PGF2α, HIPP” value ([1]; PND 35, THC vs vehicle) was 1 up arrow. The “magnitude class of change in A-Taur, THAL” value ([1]; PND 35, THC vs vehicle, significant) was 1 up arrow, the “number of significant changes in lipid concentrations across all 8 brain areas” value ([1]; PND 35, out of 656 possible changes) was 33 and the “average level of PGE2 in the HIPP” value ([1]; PND 35 THC mice, 3 mg/kg i.p., 2 hours) was 6.68×10^−10 moles per gram. The “change in levels of PGE2 and PGF2α in the HIPP” value (“change in levels” for short) ([1]; PND 35 mouse) was “increase”, the “change in AEA and its structural analogs the NAEs in STR” value ([1]; PND 50) was “significantly increased” and the “change in PGF2α in HYP (only change in that region)” value ([1]; PND 50) was “increase”. For the same molecule, the “number of brain regions with reduced 2-AG levels” value ([1]; PND 50) was 4, the “number of brain regions with reduced AEA levels” value ([1]; PND 50) was 2 and the “number of decreases in lipid concentration, all 8 brain areas” value ([1]; PND 50) was 28. For the same molecule, the “number of increases in lipid concentration, all 8 brain areas” value ([1]; PND 50) was 30, the “number of lipids decreased in CER” value ([1]; PND 50) was 8 and the “number of lipids increased in CER” value ([1]; PND 50) was 5. The “number of lipids significantly modified, all 8 brain areas” value ([1]; PND 50) was 58, the “change in levels” value ([1]; PND 50 mouse) was “no change” and the “change in NAEs in all brain areas except the STR and CTX” value ([1]; adult) was “significantly decreased”. For the same molecule, the “change in levels” value ([1]; adult) was “decrease”, the “number of brain regions with reduced 2-AG levels” value ([1]; adult) was 4 and the “number of brain regions with reduced AEA levels” value ([1]; adult) was 6. The “number of changes in lipid levels in CER (all decreases)” value ([1]; adult) was 14, the “number of decreases in lipid concentration, all 8 brain regions” value ([1]; adult) was 99 and the “number of increases in lipid concentration, all 8 brain regions” value ([1]; adult) was 17. The “number of lipids affected in STR” value ([1]; adult) was 3, the “number of lipids altered in STEM” value ([1]; adult) was 28 and the “number of lipids changing in concentration across the 8 brain regions” value ([1]; adult) was 116. For the same molecule, the “number of lipids decreased in STEM” value ([1]; adult) was 24, the “number of lipids decreased in STR” value ([1]; adult) was 2 and the “number of lipids increased in STEM” value ([1]; adult) was 4. The “number of lipids increased in STR” value ([1]; adult) was 1, the “mean level of AEA in the HIPP” value ([1]; adult THC mice, 3 mg/kg i.p., 2 hours) was 4.76×10^−11 moles per gram and the “AEA in the HIPP, THC mean divided by vehicle mean” value ([1]; adult, 3 mg/kg i.p., 2 hours) was 0.87. The “fold decrease of AEA in the HIPP (reciprocal of THC/vehicle)” value ([1]; adult, 3 mg/kg i.p., 2 hours) was 1.15, the “magnitude class of change in 2-OG, MID” value ([1]; adult, THC vs vehicle) was 2 down arrows and the “magnitude class of change in PGE2 and PGF2α, HIPP” value ([1]; adult, THC vs vehicle) was 1 down arrow. The “magnitude class of change in AEA, THAL” value [1, 6] was 1 down arrow, the “magnitude class of change in SEA, THAL” value [1, 6] was 3 down arrows and the “magnitude class of change in A-Taur, THAL” value ([1]; adult, THC vs vehicle, trending (p < 0.1)) was 1 up arrow. For the same molecule, the “magnitude class of change in 2-AG, MID” value ([1]; all 3 age groups, THC vs vehicle) was 1 down arrow, the “effect on spatial working memory in the Morris water maze” value (spatial working memory) was “significantly disrupted spatial working memory” and the “effect on FKBP5 message” value ([2]; HIPP of both age groups, 3 mg/kg, larger magnitude in adult) was “upregulated”. For the same molecule, the “effect on Cdkn1a transcript” value ([2]; HIPP of mice from both age groups) was “upregulated”, the “number of genes affected in the same direction regardless of age” value ([2]; HIPP, PND 35 and adult) was 31 and the “number of shared transcripts significantly downregulated” value ([2]; HIPP, PND 35 and adult) was 11. For the same molecule, the “number of transcripts downregulated in the HIPP” value ([2]; PND 35) was 48, the “number of transcripts upregulated in the HIPP” value ([2]; PND 35) was 41 and the “number of transcripts differentially expressed in the HIPP” value ([2]; PND 35, 3 mg/kg THC) was 89. For the same molecule, the “log2 fold change of Plekhf1 (largest upregulation)” value ([2]; PND 35 HIPP) was 0.84, the “log2 fold change of kdr (most robust downregulation)” value ([2]; PND 35 HIPP) was −0.73 and the “number of transcript changes unique to this age group” value ([2]; PND 35 HIPP) was 58. The “number of uniquely changed transcripts downregulated” value ([2]; PND 35 HIPP) was 37, the “number of decreases in transcript expression in the HIPP” value ([2]; adult) was 80 and the “number of increases in transcript expression in the HIPP” value ([2]; adult) was 109. For the same molecule, the “log2 fold change of Plekhf1 (largest upregulation)” value ([2]; adult HIPP) was 1.36, the “log2 fold change of cldn5 (most robust downregulation)” value ([2]; adult HIPP) was −0.80 and the “number of transcript changes unique to this age group” value ([2]; adult HIPP) was 158. For the same molecule, the “number of unique transcript changes that were decreases” value ([2]; adult HIPP) was 69, the “number of unique transcript changes that were increases” value ([2]; adult HIPP) was 89 and the “effect on mRNA encoding the receptor for VEGF, Kdr” value ([2]; adult and PND 35 HIPP) was “significantly lowered”. For the same molecule, the “number of transcripts differentially expressed in the HIPP” value ([2]; adult, 3 mg/kg THC) was 189.
With 11-OH-THC the “rank of HIPP levels relative to other brain regions” value [4] was “highest” and the “rank of HIPP levels relative to other brain regions” value [5] was 5th.
